From patent publication US6677433B2 (The Regents of the University of California, priority 2001, dated 2004)
Where two headings read alike, the source gives them in different places.

Experiments:
[1] = tested on: pepsin; assay: Pepsin assay in simulated gastric fluid; type: in vitro ADME, porcine; settings: thioredoxin-reduced form in milk, SGF 37° C.
Protocol: BLG, 640 μg, or milk, 1 mg protein (i.e., about 30 μl), was incubated with or without the thioredoxin system (NTS) at either 4° C. […] The BLG, 320 μg, or milk, 500 μg protein, was then treated in 200 μl of simulated gastric fluid (SGF) as described by Astwood, J. D. et al. (1996), “Stability of food allergens to digestion in vitro”, Nature Biotechnol. 14:1269-1273. SGF consists of 0.32% pepsin (w/v) and 30 mM NaCl adjusted at pH 1.2 with HCl (Board of Trustees (ed.) 1995, Simulated Gastric Fluid, TS., pp. 2053 in the United States Pharmacopeia 23, The National Formulary 18. United States Pharmacopeial Convention, Inc. Rockville, Md.). The reaction mixture was incubated at 37° C. and stopped by adding 0.375-fold volume of 160 mM Na2CO3 (ca. pH 7) after 0, 0.25, 1, 2, 4, 8, 15, 30 and 60 min incubation. The protein mixture was then subjected to SDS-PAGE (15% gels) and stained for protein with Coomassie blue as described below. As indicated, the allergenicity of the digested samples was determined by skin test analysis.

[2] = tested on: atopic dogs; assay: Feeding challenges with BLG, upper GI index; type: in vivo, dog
Protocol: Reduction of 80% pure BLG (a mixture of the A and B forms) was carried out for each dog in 100 ml of water. Each gram of BLG was treated by adding an aqueous mixture of 104 mg of NADPH, 1 mg of E. coli thioredoxin and 1 mg of E. coli NTR. The reactions occurred in a shaker at 125 rpm at 37° C. for 45 min. Samples were stored overnight at 4° C. The following day untreated (control) or treated BLG, 2.5 gm was mixed with a 12 oz. can of P/D food (Hills) and fed to a dog. Unchallenged animals received dog food alone without BLG while control animals received dog food with untreated BLG. Dogs were initially fed ¼ can of untreated food to initiate gastric flow. After 15 min, they were then fed at 3 intervals separated by 15 min ⅓ of a can of food that had been mixed with 2.5 g of either untreated or thioredoxin treated BLG. During these intervals dogs were monitored and their GI response assessed. Dogs were then observed and their response recorded at hourly intervals for the next 5 hr.
The digestion response of the food challenged dogs described above was assessed by assigning numbers to the timing, volume and fluidity of vomit induced by feeding. Fluidity: no vomit=0, solid vomit=1, liquid vomit=2, liquid with blood or bile vomit=3. Volume: no vomit=0, small vomit=1 and large vomit=2. Timing: delayed vomit=1, immediate vomit=2.

[3] = tested on: Gliadins; assay: Reductant specificity of gliadins (mBBr, native gel, densitometer); type: biochemical, durum wheat; set-up: Gliadin, % Relative Reduction, α / Gliadin, % Relative Reduction, β / Gliadin, % Relative Reduction, γ: concentration or dose not given beside the values; settings: Thioredoxin = 100
Protocol: (§1) For isolation of insoluble storage proteins, semolina (0.2 g) was extracted sequentially with 1 ml of the following solutions for the indicated times at 25° C.; (1) 50 mM Tris-HCl, pH 7.5 (20 min); (2) 70% ethanol (2 hr); and (3) 0.1 M acetic acid (2 hr). During extraction, samples were placed on an electrical rotator and, in addition, occasionally agitated with a vortex mixer. After extraction with each solvent, samples were centrifuged (12,000 rpm for 5 min) in an Eppendorf microfuge and, supernatant fractions were saved for analysis. In between each extraction, pellets were washed with 1 ml of water, collected by centrifugation as before and the supernatant wash fractions were discarded. By convention, the fractions are designated: (1) albumin/globulin; (2) gliadin; and (3) glutenin.
(§2) Reactions were carried out in 100 mM Tris-HCl buffer, pH 7.9. As indicated, 0.7 μg NTR and 1 μg thioredoxin (both from E. coli unless specified otherwise) were added to 70 μl of this buffer containing 1 mM NADPH and 10 μg of target protein.
To resolve the different types of gliadins, native polyacrylamide gel electrophoresis was performed in 6% gels (a procedure designed to separate gliadins into the four types) as described by Bushuk and Zillman (Bushuk, W. et al. (1978), Can. J. Plant Sci. 58:505-515) and modified for vertical slab gels by Sapirstein and Bushuk (Sapirstein, H. D. et al. (1985), Cereal Chem. 62:372-377). A gel solution in 100 ml final volume contained 6.0 g acrylamide, 0.3 g bisacrylamide, 0.024 g ascorbic acid, 0.2 mg ferrous sulfate heptahydrate and 0.25 g aluminum lactate. The pH was adjusted to 3.1 with lactic acid. The gel solution was degassed for 2 hr. on ice and then 0.5 ml of 3% hydrogen peroxide was added as a polymerization catalyst. The running buffer, also adjusted to pH 3.1 with lactic acid, contained 0.5 g aluminum lactate per liter. Duration of electrophoresis was approximately 4 hr., with a constant current of 50 mA. Electrophoresis was terminated when the solvent front, marked with methyl green tracking dye, migrated to about 1 cm from the end of the gel.
(§3) The Polaroid negatives of fluorescent gels and prints of wet protein stained gels were scanned with a laser densitometer (Pharmacia-LKB UltroScan XL). Fluorescence was quantified by evaluating peak areas after integration with GelScan XL software.
The gliadin fraction is made up of four different protein types, designated α, β, γ and ω, which can be separated by native polyacrylamide gel electrophoresis under acidic conditions (Bushuk, W. et al. (1978), Can. J. Plant Sci. 58:505-515; Kasarda, D. D. et al. (1976), Adv. Cer. Sci. Tech. 1:158-236; Sapirstein, H. D. et al. (1985), Cereal Chem. 62:372-377; and Tatham, A. S. et al. (1990), Adv. Cer. Sci. Tech. 10:1-78). Except for the ω) gliadins, each species contains cystine (S—S) groups and thus has the potential for reduction by thioredoxin. In this study, following incubation with the indicated additions, proteins were derivatized with mBBr, and fluorescence was visualized after acidic-polyacrylamide gel electrophoresis. The lanes in the second gliadin gel in this study were as follows: 1. Control: no addition. 2. GSH: reduced glutathione. 3. GSH/GR/NADPH: reduced glutathione, glutathione reductase (from spinach leaves) and NADPH. 4. NGS: NADPH, reduced glutathione, glutathione reductase (from spinach leaves) and glutaredoxin (from E. coli). 5. NGS+NTS: combination of 4 and 6. 6. NTS: NADPH, NTR, and thioredoxin (both proteins from E. coli). 7. MET/T(Ec): β-mercaptoethanol and thioredoxin (E. coli). 8. DTT/T(Ec): DTT and thioredoxin (E. coli). 9. NTS(−T): same as 6 except without thioredoxin. 10. NGS+NTS,-Gliadin: same as 5 except without the gliadin fraction.

[4] = tested on: Glutenins; assay: Reductant specificity of glutenins (mBBr/SDS-PAGE, densitometer); type: biochemical, durum wheat; set-up: concentration or dose not given beside the values
Protocol: as §1, §2
SDS-polyacrylamide electrophoresis of the mBBr-derivatized samples was performed in 15% gels at pH 8.5 as described by Laemmli, U.K. (1970), Nature 227:680-685. Gels of 1.5 mm thickness were developed for 16 hr. at a constant current of 9 mA.
as §3

[5] = biological target: thioredoxin (Escherichia coli, UniProt P0AA25)
[6] = tested on: castor seed 2S protein; type: biochemical, Ricinus communis
[7] = tested on: egg white proteins; assay: Reduction of egg white proteins (mBBr/SDS-PAGE); type: biochemical, chicken; settings: 1 hr at room temperature
Protocol: Dried chicken egg white was purchased from Sigma Chemical Co. About 80% of the total proteins in egg white are allergens. A solution of 20 mg/ml egg white was resuspended in PBS. Since not all the material was dissolved, it was centrifuged at 14,000 RPM for 2 min. The soluble egg white proteins were used for the reduction study using mBBr fluorescent labelling and SDS-polyacrylamide gel electrophoresis analysis. The treatments used were the control (no reductant), NTS, DTT plus thioredoxin, reduced glutathione (GSH) and reduced glutathione/glutathione reductase/NADPH. Reactions were carried out in PBS with 23 microliters of the soluble proteins from the 20 mg/ml egg white suspension in a final volume of 100 microliters. In the NTS, 7.5 mM NADPH, 2.4 micrograms thioredoxin and 2.1 micrograms NTR were used. When thioredoxin was reduced by DTT, NADPH and NTR were omitted and DTT was added to 1.5 mM. The GSH concentration used was 3 mM. For reduction by the GSH/GR/NADPH system, 3 mM GSH, 4 micrograms GR and 7.5 mM NADPH were used. The mixture was incubated for 1 hr at room temperature. After incubation, 7 microliters of 80 mM mBBr was added and the reaction continued for 15 min at room temperature. […] Samples were then analyzed by SDS-polyacrylamide gel electrophoresis.

[8] = tested on: trypsin; assay: Trypsin proteolysis of purified milk allergen proteins; type: biochemical; settings: 2 μg trypsin
Protocol: The analysis of the reduction was done using the mBBr/SDS-PAGE techniques. Further in this study, when 10 μg of an NTS reduced purified milk allergen protein, β-lactoglobulin (Sigma Chemical Co.), was treated with 2 μg of trypsin, proteolysis was 100% as compared with only 50% for the identically trypsin treated oxidized β-lactoglobulin. […] However, 10 μg of purified […] reduced by the NTS was proteolyzed 80% by trypsin. Also 10 μg of α-lactalbumin reduced by 0.8 μg of thioredoxin and 0.5 mM DTT was 100% proteolyzed by 2 μg of trypsin.

| Molecule | Gliadin, % Relative Reduction, Aggregate (proteins not entering the gel) [3] [%] | Gliadin, % Relative Reduction, α [3] [%] | Gliadin, % Relative Reduction, β [3] [%] | Gliadin, % Relative Reduction, γ [3] [%] | Glutenin, % Relative Reduction, 30-40 kDa ([4]; Thioredoxin = 100) [%] | Glutenin, % Relative Reduction, 40-60 kDa ([4]; Thioredoxin = 100) [%] | Glutenin, % Relative Reduction, 60-110 kDa ([4]; Thioredoxin = 100) [%] | also measured |
| --- | --- | --- | --- | --- | --- | --- | --- | --- |
| Treated: BLG reduced with NADPH, E. coli thioredoxin and NTR | – | – | – | – | – | – | – | time to digestion [1]: ≤ 60 s; Upper GI Index ([2]; dog 6GCB1, Treated Exp. A, Control Exp. B): 0; Upper GI Index ([2]; dog 6GCB3, BLG 2.5 g in dog food, Control Exp. A, Treated Exp. B): 0; Upper GI Index ([2]; dog 6GCB4, Treated Exp. A, Control Exp. B): 6; Upper GI Index ([2]; dog 6GCB6, Treated Exp. A, Control Exp. B): 0; Upper GI Index ([2]; dog 6GCB7, Control Exp. A, Treated Exp. B): 3; gastric reflux that disappeared ([2]; repeated feeding trials, on average): about 70% |
| Thioredoxin: E. coli thioredoxin reduced by NADPH and NTR | 100.0 | 100.0 | 100.0 | 100.0 | 100 | 100 | 100 | – |
| erabutoxin b: short postsynaptic snake neurotoxin | – | – | – | – | – | – | – | reduction of the toxin [5]: significantly reduced |
| N[C@@H](CCC(=O)N[C@@H](CS)C(=O)NCC(=O)O)C(=O)O [Glutathione, reduced glutathione, reference compound] | 60.1 | 36.4 | 68.1 | 60.6 | – | – | – | Glutenin, % Relative Reduction, 30-40 kDa [4]: 29%; Glutenin, % Relative Reduction, 40-60 kDa [4]: 51%; Glutenin, % Relative Reduction, 60-110 kDa [4]: 31%; Relative Reduction (%) [6]: 0%; effectiveness in reducing egg white proteins [7]: ineffective reductant |
| Glutaredoxin: E. coli glutaredoxin with glutathione reductase, glutathione and NADPH (protein, UniProt P68688 1-85, looked up, with glutathione reductase, glutathione, NADPH) Glutaredoxin 1: MQTVIFGRSGCPYCVRAKDLAEKLSNERDDFQYQYVDIRAEGITKEDLQQKAGKPVETVPQIFVDQQHIGGYTDFAAWVKENLDA | 61.5 | 43.5 | 83.3 | 79.7 | 40 | 72 | 50 | – |
| α-lactalbumin: purified milk allergen (protein, UniProt P00711 20-142, looked up) Alpha-lactalbumin: EQLTKCEVFRELKDLKGYGGVSLPEWVCTTFHTSGYDTQAIVQNNDSTEYGLFQINNKIWCKDDQNPHSSNICNISCDKFLDDDLTDDIMCVKKILDKVGINYWLAHKALCSEKLDQWLCEKL | – | – | – | – | – | – | – | proteolysis by trypsin ([8]; 10 μg oxidized protein): no noticeable proteolysis; proteolysis by trypsin ([8]; 10 μg protein reduced by 0.8 μg thioredoxin and 0.5 mM DTT): 100% |
